{
  "source": "patent US8383584B2",
  "about": "“HCV inhibiting macrocyclic phenylcarbamates” (Medivir AB, priority 2007, dated 2013)",
  "data": [
    {"molecular_target": "T1, HCV NS3/4A protease complexes (full-length hepatitis C NS3 protease enzyme) (Hepatitis C virus genotype 1a, UniProt P27958)", "T1 construct": "full-length hepatitis C NS3 protease enzyme", "T1 sequence (P27958 1027-1657, one chain of several)": "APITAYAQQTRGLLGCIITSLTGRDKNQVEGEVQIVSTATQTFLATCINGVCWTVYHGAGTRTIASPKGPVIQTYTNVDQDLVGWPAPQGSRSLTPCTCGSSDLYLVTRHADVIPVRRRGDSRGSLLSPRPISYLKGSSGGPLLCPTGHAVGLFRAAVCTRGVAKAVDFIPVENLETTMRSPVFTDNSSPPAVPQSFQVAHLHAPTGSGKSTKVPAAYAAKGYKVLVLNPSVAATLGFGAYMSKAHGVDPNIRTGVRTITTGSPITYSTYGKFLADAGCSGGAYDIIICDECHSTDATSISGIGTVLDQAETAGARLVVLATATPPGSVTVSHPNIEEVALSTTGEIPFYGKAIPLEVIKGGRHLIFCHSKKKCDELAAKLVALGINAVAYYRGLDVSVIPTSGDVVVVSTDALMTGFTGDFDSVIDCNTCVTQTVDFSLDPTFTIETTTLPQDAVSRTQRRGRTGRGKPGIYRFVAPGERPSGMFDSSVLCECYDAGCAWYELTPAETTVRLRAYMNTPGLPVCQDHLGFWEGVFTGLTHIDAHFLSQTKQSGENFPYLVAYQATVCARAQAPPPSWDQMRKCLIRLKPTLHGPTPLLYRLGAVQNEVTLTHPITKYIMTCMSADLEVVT", "test": "Inhibition assay (enzyme assay), depsipeptide substrate hydrolysis with NS4A cofactor", "type": "biochemical", "settings": "1 nM enzyme, 25 μM NS4A cofactor, 0.5 μM substrate, 30° C.", "method": "The aim of this in vitro assay was to measure the inhibition of HCV NS3/4A protease complexes by the compounds of the present invention. This assay provides an indication of how effective compounds of the present invention would be in inhibiting HCV NS3/4A proteolytic activity.\nThe inhibition of full-length hepatitis C NS3 protease enzyme was measured essentially as described in Poliakov, 2002 Prot Expression & Purification 25 363 371. Briefly, the hydrolysis of a depsipeptide substrate, Ac-DED(Edans)EEAbuψ[COO]ASK(Dabcyl)-NH2 (AnaSpec, San José, USA), was measured spectrofluorometrically in the presence of a peptide cofactor, KKGSVVIVGRIVLSGK (Åke Engström, Department of Medical Biochemistry and Microbiology, Uppsala University, Sweden). [Landro, 1997 #Biochem 36 9340-9348]. The enzyme (1 nM) was incubated in 50 mM HEPES, pH 7.5, 10 mM DTT, 40% glycerol, 0.1% n-octyl-D-glucoside, with 25 μM NS4A cofactor and inhibitor at 30° C. for 10 min, whereupon the reaction was initiated by addition of 0.5 μM substrate. Inhibitors were dissolved in DMSO, sonicated for 30 sec. and vortexed. The solutions were stored at −20° C. between measurements.\nThe final concentration of DMSO in the assay sample was adjusted to 3.3%. The rate of hydrolysis was corrected for inner filter effects according to published procedures [Liu, Analytical Biochemistry, 1999, vol. 267, pp. 331-335]. Ki values were estimated by non-linear regression analysis (GraFit, Erithacus Software, Staines, MX, UK), using a model for competitive inhibition and a fixed value for Km (0.15 μM). A minimum of two replicates was performed for all measurements.", "units": {"Ki": "nM"}, "values": [
      {"smiles": "CN1CCCCC=CC2CC2(C(=O)NS(=O)(=O)C2CC2)NC(=O)C2CC(OC(=O)Nc3ccccc3C#N)CC2C1=O", "note": "(stereo not drawn) [Example 1, (2-Cyanophenyl)-carbamic acid 4-cyclopropanesulfonylaminocarbonyl-13-methyl-2,14-dioxo-3,13-diaza-tricyclo[13.3.0.0*4,6*]octadec-7-en-17-yl ester]", "Ki": "30 to 100"},
      {"smiles": "CN1CCCC/C=C\\[C@@H]2C[C@@]2(C(=O)NS(=O)(=O)C2CC2)NC(=O)[C@@H]2C[C@@H](OC(=O)Nc3ccccc3Oc3ccccc3)C[C@H]2C1=O", "note": "[Example 2, (2-Phenoxyphenyl)-carbamic acid 4-cyclopropanesulfonylaminocarbonyl-13-methyl-2,14-dioxo-3,13-diaza-tricyclo[13.3.0.0*4,6*]octadec-7-en-17-yl ester]", "Ki": "0.1 to 29.9"},
      {"smiles": "COc1ccccc1NC(=O)O[C@@H]1C[C@H]2C(=O)N[C@]3(C(=O)NS(=O)(=O)C4CC4)C[C@H]3/C=C\\CCCCN(C)C(=O)[C@@H]2C1", "note": "[Example 3, (2-Methoxy-phenyl)-carbamic acid 4-cyclopropanesulfonylaminocarbonyl-13-methyl-2,14-dioxo-3,13-diaza-tricyclo[13.3.0.0*4,6*]octadec-7-en-17-yl ester]", "Ki": "0.1 to 29.9"}
    ]},
    {"tested_on": "HCV replicons (Huh-7 luc/neo cells, NS3-NS5B regions of HCV type 1b)", "test": "Replicon assay (Huh-Luc luciferase, HCV RNA replication)", "type": "cell-based", "settings": "Hepatitis C virus, Huh-7, 72 h, read-out: EC50 Replicon assay", "excerpt": "(§1) The compounds of formula (I) were examined for activity in the inhibition of HCV RNA replication in a cellular assay. […] The cellular assay was based on a bicistronic expression construct, as described by Lohmann et al. (1999) Science vol. 285 pp. 110-113 with modifications described by Krieger et al. (2001) Journal of Virology 75: 4614-4624, in a multi-target screening strategy. In essence, the method was as follows.\n(§2) The assay utilized the stably transfected cell line Huh-7 luc/neo (hereafter referred to as Huh-Luc). This cell line harbors an RNA encoding a bicistronic expression construct comprising the wild type NS3-NS5B regions of HCV type 1b translated from an Internal Ribosome Entry Site (IRES) from encephalomyocarditis virus (EMCV), preceded by a reporter portion (FfL-luciferase), and a selectable marker portion (neo^R, neomycine phosphotransferase). The construct is bordered by 5′ and 3′ NTRs (non-translated regions) from HCV type 1b. Continued culture of the replicon cells in the presence of G418 (neo^R) is dependent on the replication of the HCV RNA. The stably transfected replicon cells that express HCV RNA, which replicates autonomously and to high levels, encoding inter alia luciferase, are used for screening the antiviral compounds.\n(§3) The replicon cells were plated in 384 well plates in the presence of the test and control compounds which were added in various concentrations. Following an incubation of three days, HCV replication was measured by assaying luciferase activity (using standard luciferase assay substrates and reagents and a Perkin Elmer ViewLux™ ultraHTS microplate imager). Replicon cells in the control cultures have high luciferase expression in the absence of any inhibitor. The inhibitory activity of the compound on luciferase activity was monitored on the Huh-Luc cells, enabling a dose-response curve for each test compound. EC50 values were then calculated, which value represents the amount of the compound required to decrease by 50% the level of detected luciferase activity, or more specifically, the ability of the genetically linked HCV replicon RNA to replicate.", "units": {"EC50": "nM"}, "values": [
      {"smiles": "CN1CCCC/C=C\\[C@@H]2C[C@@]2(C(=O)NS(=O)(=O)C2(C)CC2)NC(=O)[C@@H]2C[C@@H](OC(=O)Nc3cccc(N(C)C)c3)C[C@H]2C1=O", "note": "[Example 9, (3-Dimethylaminophenyl)-carbamic acid 13-methyl-4-(1-methyl-cyclopropane-sulfonylaminocarbonyl)-2,14-dioxo-3,13-diaza-tricyclo[13.3.0.0*4,6*]octadec-7-en-17-yl ester]", "EC50": "1000 to 10000"}
    ]},
    {"tested_on": "HCV replicons (Huh-7 luc/neo cells, NS3-NS5B regions of HCV type 1b)", "test": "Replicon assay (Huh-Luc luciferase, HCV RNA replication)", "type": "cell-based", "settings": "Hepatitis C virus, Huh-7, 72 h; Huh-Luc cells, three days incubation, luciferase activity; read-out: EC50 Replicon assay", "excerpt": "as §1, §2, §3", "units": {"EC50": "nM"}, "values": [
      {"smiles": "CN1CCCCC=CC2CC2(C(=O)NS(=O)(=O)C2CC2)NC(=O)C2CC(OC(=O)Nc3ccccc3C#N)CC2C1=O", "note": "(stereo not drawn) [Example 1, (2-Cyanophenyl)-carbamic acid 4-cyclopropanesulfonylaminocarbonyl-13-methyl-2,14-dioxo-3,13-diaza-tricyclo[13.3.0.0*4,6*]octadec-7-en-17-yl ester]", "EC50": "> 10000"},
      {"smiles": "CN1CCCC/C=C\\[C@@H]2C[C@@]2(C(=O)NS(=O)(=O)C2CC2)NC(=O)[C@@H]2C[C@@H](OC(=O)Nc3ccccc3Oc3ccccc3)C[C@H]2C1=O", "note": "[Example 2, (2-Phenoxyphenyl)-carbamic acid 4-cyclopropanesulfonylaminocarbonyl-13-methyl-2,14-dioxo-3,13-diaza-tricyclo[13.3.0.0*4,6*]octadec-7-en-17-yl ester]", "EC50": "1000 to 10000"},
      {"smiles": "COc1ccccc1NC(=O)O[C@@H]1C[C@H]2C(=O)N[C@]3(C(=O)NS(=O)(=O)C4CC4)C[C@H]3/C=C\\CCCCN(C)C(=O)[C@@H]2C1", "note": "[Example 3, (2-Methoxy-phenyl)-carbamic acid 4-cyclopropanesulfonylaminocarbonyl-13-methyl-2,14-dioxo-3,13-diaza-tricyclo[13.3.0.0*4,6*]octadec-7-en-17-yl ester]", "EC50": "1000 to 10000"},
      {"smiles": "COC(=O)c1cccc(NC(=O)O[C@@H]2C[C@H]3C(=O)N[C@]4(C(=O)NS(=O)(=O)C5CC5)C[C@H]4/C=C\\CCCCN(C)C(=O)[C@@H]3C2)c1", "note": "[Example 5, 3-(4-Cyclopropanesulfonylaminocarbonyl-13-methyl-2,14-dioxo-3,13-diaza-tricyclo-[13.3.0.0*4,6*]octadec-7-en-17-yloxycarbonylamino)-benzoic acid methyl ester]", "EC50": "1000 to 10000"},
      {"smiles": "COc1ccc(C#N)cc1NC(=O)OC1CC2C(=O)NC3(C(=O)NS(=O)(=O)C4(C)CC4)CC3C=CCCCCN(C)C(=O)C2C1", "note": "(stereo not drawn) [Example 6c, (5-Cyano-2-methoxy-phenyl)-carbamic acid 13-methyl-4-(1-methyl-cyclopropanesulfonylaminocarbonyl)-2,14-dioxo-3,13-diaza-tricyclo[13.3.0.0*4,6*]-octadec-7-en-17-yl ester]", "EC50": "> 10000"},
      {"smiles": "COc1cccc(NC(=O)O[C@@H]2C[C@H]3C(=O)N[C@]4(C(=O)NS(=O)(=O)C5CC5)C[C@H]4/C=C\\CCCCN(C)C(=O)[C@@H]3C2)c1", "note": "[Example 10, (3-Methoxyphenyl)-carbamic acid 4-cyclopropanesulfonylaminocarbonyl-13-methyl-2,14-dioxo-3,13-diaza-tricyclo[13.3.0.0*4,6*]octadec-7-en-17-yl ester]", "EC50": "1000 to 10000"},
      {"smiles": "CN1CCCC/C=C\\[C@@H]2C[C@@]2(C(=O)NS(=O)(=O)C2CC2)NC(=O)[C@@H]2C[C@@H](OC(=O)Nc3cccc(Oc4ccccc4)c3)C[C@H]2C1=O", "note": "[Example 11, (3-Phenoxy-phenyl)-carbamic acid 4-cyclopropanesulfonylaminocarbonyl-13-methyl-2,14-dioxo-3,13-diaza-tricyclo[13.3.0.0*4,6*]octadec-7-en-17-yl ester]", "EC50": "1000 to 10000"},
      {"smiles": "CN1CCCC/C=C\\[C@@H]2C[C@@]2(C(=O)NS(=O)(=O)C2CC2)NC(=O)[C@@H]2C[C@@H](OC(=O)Nc3cccc(C#N)c3)C[C@H]2C1=O", "note": "[Example 12, (3-Cyano-phenyl)-carbamic acid 4-cyclopropanesulfonylaminocarbonyl-13-methyl-2,14-dioxo-3,13-diaza-tricyclo[13.3.0.0*4,6*]octadec-7-en-17-yl ester]", "EC50": "200 to 990"},
      {"smiles": "CN1CCCC/C=C\\[C@@H]2C[C@@]2(C(=O)NS(=O)(=O)C2(C)CC2)NC(=O)[C@@H]2C[C@@H](OC(=O)Nc3cccc(C#N)c3)C[C@H]2C1=O", "note": "[Example 13, (3-Cyanophenyl)-carbamic acid 13-methyl-4-(1-methylcyclopropanesulfonylamino-carbonyl)-2,14-dioxo-3,13-diaza-tricyclo[13.3.0.0*4,6*]octadec-7-en-17-yl ester]", "EC50": "0.5 to 199"},
      {"smiles": "COc1cccc(NC(=O)O[C@@H]2C[C@H]3C(=O)N[C@]4(C(=O)NS(=O)(=O)C5(C)CC5)C[C@H]4/C=C\\CCCCN(C)C(=O)[C@@H]3C2)c1", "note": "[Example 14, (3-Methoxy-phenyl)-carbamic acid 13-methyl-4-(1-methyl-cyclopropanesulfonyl-aminocarbonyl)-2,14-dioxo-3,13-diaza-tricyclo[13.3.0.0*4,6*]octadec-7-en-17-yl ester]", "EC50": "200 to 990"},
      {"smiles": "Cc1cccc(NC(=O)O[C@@H]2C[C@H]3C(=O)N[C@]4(C(=O)NS(=O)(=O)C5CC5)C[C@H]4/C=C\\CCCCN(C)C(=O)[C@@H]3C2)c1", "note": "[Example 15, m-Tolyl-carbamic acid 4-cyclopropanesulfonylaminocarbonyl-13-methyl-2,14-dioxo-3,13-diaza-tricyclo[13.3.0.0*4,6*]octadec-7-en-17-yl ester]", "EC50": "> 10000"},
      {"smiles": "Cc1ccc(F)c(NC(=O)O[C@@H]2C[C@H]3C(=O)N[C@]4(C(=O)NS(=O)(=O)C5CC5)C[C@H]4/C=C\\CCCCN(C)C(=O)[C@@H]3C2)c1", "note": "[Example 16, (2-Fluoro-5-methyl-phenyl)-carbamic acid 4-cyclopropanesulfonylaminocarbonyl-13-methyl-2,14-dioxo-3,13-diaza-tricyclo[13.3.0.0*4,6*]octadec-7-en-17-yl ester]", "EC50": "1000 to 10000"},
      {"smiles": "Cc1nc(-c2cccc(NC(=O)O[C@@H]3C[C@H]4C(=O)N[C@]5(C(=O)NS(=O)(=O)C6CC6)C[C@H]5/C=C\\CCCCN(C)C(=O)[C@@H]4C3)c2)cs1", "note": "[Example 17, [3-(2-Methyl-thiazol-4-yl)-phenyl]-carbamic acid 4-cyclopropanesulfonylamino-carbonyl-13-methyl-2,14-dioxo-3,13-diaza-tricyclo[13.3.0.0*4,6*]octadec-7-en-17-yl ester]", "EC50": "1000 to 10000"},
      {"smiles": "Cc1ccc(C#N)c(NC(=O)O[C@@H]2C[C@H]3C(=O)N[C@]4(C(=O)NS(=O)(=O)C5CC5)C[C@H]4/C=C\\CCCCN(C)C(=O)[C@@H]3C2)c1", "note": "[Example 18, (2-Cyano-5-methyl-phenyl)-carbamic acid 4-cyclopropanesulfonylaminocarbonyl-13-methyl-2,14-dioxo-3,13-diaza-tricyclo[13.3.0.0*4,6*]octadec-7-en-17-yl ester]", "EC50": "200 to 990"}
    ]}
  ]
}
